Data reported in PMC6544120, “Stimuli-responsive membrane activity of cyclic-peptide–polymer conjugates” (Chemical Science, 2019).

Assay: Calcein dye leakage assay
Type: biochemical
Conditions: pure DTT 30 mM without CPNT
Protocol: This was tested by studying the interaction of our CPNT with synthetic liposomes. A mixture of phosphatidylethanolamine and phosphatidylglycerol was used to simulate the cytosolic membrane of E. coli.[35] Vesicles were loaded with self-quenching concentrations of a fluorescent dye (calcein). This allows to detect disruption of the bilayer, as dye release from the liposomes and the resulting dilution leads to an increase in fluorescence (Scheme S4 ^†).
The fit (Figure S25) was performed with R, Rg, N agg, l and N as adjustable parameter.
Table S2. Fitting parameters for 24 using a form factor of a micelle with a spherical core […]
Rg, corona b 16.6 Å parameters
Vcore (single unit) c 300 Å3 […]
Background subtracted 5 × 10 -2 cm-1 a The radius of the core was calculated from the volume of the whole core given by the volume of the core of a single unit multiplied with the number of aggregation (N agg); b Radius of gyration (R g) of a single chain in the corona; c The Volume of a single cyclic peptide in the core or polymer corona (PEtOx) was estimated from the Mn, divided by the Avogadro constant and assuming a density of 1 g/cm 3, d The scattering lengths density (SLD) of the materials was calculated using the calculator given in SASfit; […]
Formation of vesicles. […]

O[C@@H](CS)[C@@H](O)CS (racemic) [DTT, 1,4-dithiothreitol]
Effect of DTT alone on fluorescence intensity (calcein release): no effect on the fluorescence intensity
